Test results taken from patent US20250339569A1, “CARBONIC ANHYDRASE IX LIGANDS” (priority 2021, published 2025).
Where two headings read alike, the source gives them in different places. Starred links: 1 amine or outer side, 2 acyl side, 3 side chain; linkers in the order of their positions; H or OH if unused. Positions of bridges follow the written chain, without caps; N, C: chain ends. Non-standard residues stand in square brackets, D forms with d. Residues, ends and D or L forms follow the SMILES beside them. *: point of attachment. NH(CH2)3NHDOTA = O=C(O)CN1CCN(CC(=O)O)CCN(CC(=O)NCCCN*)CCN(CC(=O)O)CC1; X3 = O=C(O)CN1CCN(CC(=O)O)CCN(CC(=O)NCCCOCCOCCOCCCN*)CCN(CC(=O)O)CC1; X23 = NS(=O)(=O)c1cccc(C(=O)Nc2cccc(C[C@H](N[*:1])C(=O)[*:2])c2)c1; DOTA = O=C(O)CN1CCN(CC(=O)O)CCN(CC(=O)*)CCN(CC(=O)O)CC1; Phe(3,4-Cl2) = N[C@@H](Cc1ccc(Cl)c(Cl)c1)C(=O)O; Phe(4-NH2) = Nc1ccc(C[C@H](N)C(=O)O)cc1; mXylylene = c1cc(C[*:1])cc(C[*:2])c1; dOrn(Me2) = CN(C)CCC[C@@H](N)C(=O)O; Orn(Me2) = CN(C)CCC[C@H](N)C(=O)O; X2 = O=C(CN1CCC(N[*:1])CC1)[*:2]; Suc = O=C(CCC(=O)[*:2])[*:1]; Dap = NC[C@H](N)C(=O)O

What was measured:
[1] = biological target: T1, CAIX-expressing human HT-29 colorectal cancer cells (Homo sapiens, UniProt Q16790); assay: FACS binding assay (IC50 determination, competition with tracer 3BP-2776 or 3BP-4149); settings: 4° C., 1 hour, read-out: pIC50 category (activity) (converted)
T1 construct: CAIX-expressing human HT-29 colorectal cancer cells; host or cells: HT-29 human colorectal cancer cells
In short: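 HT-29 cells in FACS buffer (PBS, 1% FCS) at 500.000 cells/ml were exposed to compounds competing with a labelled tracer, with biotinylated compounds detected by 1 μg/mL APC-streptavidin for 30 min on ice. APC/Cy5 median fluorescence was read by flow cytometry and IC50 derived by 4PL fit.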

[2] = biological target: T2, human carbonic anhydrase IX (hCAIX-Fc) (Homo sapiens, UniProt Q16790); assay: Surface plasmon resonance assay with hCAIX-Fc; assay type: binding; settings: 25° C.; for t1/2 category (activity): SPR dissociation half-life, hCAIX-Fc; for Kd: SPR, hCAIX-Fc captured, read-out: pKD category (activity) (converted)
T2 construct: purchased SinoBliological (Sino Biological) 10107-H02H
Experimental: Surface plasmon resonance (SPR) studies were performed using a Biacore™ T200 SPR system (GE Healthcare Life Sciences). Briefly, polarized light is directed towards a gold-labeled sensor surface, and minimum intensity reflected light is detected. The angle of reflected light changes as molecules bind and dissociate.
Fc-fusion protein of human carbonic anhydrase IX (hCAIX-Fc, SinoBliological, Cat #10107-H02H) was captured on a Fc-capture chip (Biacore™ CM5 sensor chip coated with ˜300 RU of an Fc-binding peptide). Recombinant carbonic anydrase was diluted in Running Buffer (PBST, 0.1% DMSO) to a final concentration 100 or 200 nM and than flushed over the Fc-capture chip to immobilized ˜1000 RUs.
Stock solutions of test compounds were prepared by dissolving each compound in DMSO. DMSO stock solution were diluted 1:1000 in Running Buffer without DMSO. Further sequencial dilutions were made with Running Buffer containing 0.1% DMSO. SPR binding analyses were performed in Single Cycle Kinetic (SCK) mode at 25° C. Flow cell coated with the Fc-binding peptide only served as reference flowcell. After each SCK run, carbonic andydrase IX was removed with 10 mM glycine buffer, pH 1.5.
In between every three SCK measurements, a blank run with Running Buffer instead of test compound was included to correct for baseline drifts (double blanking methods).
Table 11 describes the protocol steps for Fc-fusion target capturing and assessment of the binding kinetics.
For each test compound, SPR raw data in the form of resonance units (RU) were plotted as sensorgrams using the Biacore™ T200 control software. The signal from the blank sensorgram was subtracted from that of the test compound sensorgram (blank corrected). The blank corrected sensorgram was corrected for baseline drift by subtracting the sensorgram of a SCK run without the test compound (running buffer only). The association rate (kon), dissociation rate (koff), dissociation constant (KD), and t1/2 were calculated from Blank-normalized SPR data using the 1:1 Langmuir binding model from the Biacore™ T200 evaluation software. Raw data and fit results were imported as text files in IDBS. The pKD value (negative decadic logarithm of dissociation constant) was calculated in the IDBS excel template.

[3] = FACS competition on HT-29 cells, Tracer ID 3BP-2776 (10 nM, biotin-labeled)
[4] = FACS binding assay, HT-29 cells, competition with tracer 3BP-2776 (10 nM, biotin-labeled)
[5] = FACS binding assay, HT-29 cells, competition with tracer 3BP-4149 (3 nM, Cy5-labeled)

SMILES | IC50 [1, 3] [nM] | t1/2 category (activity) [2] | Kd [2] [nM] | IC50 [1, 4] [nM] | IC50 [1, 5] [nM]
CC(=O)N[C@@H](CO)C(=O)N[C@@H](Cc1ccc(O)cc1)C(=O)N[C@H]1CSCc2cccc(c2)CSC[C@@H](C(N)=O)NC(=O)[C@H](CCC(=O)NCCCNC(=O)CN2CCN(CC(=O)O)CCN(CC(=O)O)CCN(CC(=O)O)CC2)NC(=O)[C@H](Cc2c[nH]c3ccccc23)NC(=O)[C@H]([C@@H](C)O)NC(=O)[C@H](CC(C)C)NC(=O)[C@H](Cc2c[nH]c3ccccc23)NC(=O)[C@H](CC(=O)O)NC(=O)[C@H]2CCCN2C(=O)[C@H](CCC(=O)O)NC1=O [3BP-3873] (Ac-SYCE[dP]DWLTWE(NH(CH2)3NHDOTA)C-NH2; linker 3-12 via mXylylene) | < 10 | B (t1/2 between 5.1 and 15.0 minutes) | < 10 |  | 
CC(C)C[C@@H]1NC(=O)[C@H](Cc2c[nH]c3ccccc23)NC(=O)[C@H](CC(=O)O)NC(=O)[C@@H](C)NC(=O)[C@H](CCC(=O)O)NC(=O)[C@@H](NC(=O)[C@H](Cc2ccc(O)cc2)NC(=O)[C@@H](NC(=O)CCC(=O)NCCCOCCOCCOCCCNC(=O)CN2CCN(CC(=O)O)CCN(CC(=O)O)CCN(CC(=O)O)CC2)C(C)C)CSCc2cccc(c2)CSC[C@@H](C(N)=O)NC(=O)[C@H](C)NC(=O)[C@H](Cc2c[nH]c3ccccc23)NC(=O)[C@H]([C@@H](C)O)NC1=O [3BP-3279] ({X3-Suc}-VYCE[dA]DWLTWAC-NH2; linker 3-12 via mXylylene) | < 10 | B (t1/2 between 5.1 and 15.0 minutes) | < 10 |  | 
CC(C)C[C@@H]1NC(=O)[C@H](Cc2c[nH]c3ccccc23)NC(=O)[C@H](CC(=O)O)NC(=O)[C@H]2CCCN2C(=O)[C@H](CCC(=O)O)NC(=O)[C@@H](NC(=O)[C@H](CCCN(C)C)NC(=O)[C@@H](NC(=O)CN2CCC(NC(=O)CN3CCN(CC(=O)O)CCN(CC(=O)O)CCN(CC(=O)O)CC3)CC2)C(C)C)CSCc2cccc(c2)CSC[C@@H](C(N)=O)NC(=O)[C@H](CO)NC(=O)[C@H](Cc2c[nH]c3ccccc23)NC(=O)[C@H]([C@@H](C)O)NC1=O [3BP-4095] ({DOTA}-[X2]V[Orn(Me2)]CE[dP]DWLTWSC-NH2; linker 4-13 via mXylylene) |  | B (t1/2 between 5.1 and 15.0 minutes) | < 10 | < 10 | 
CC(C)C[C@@H]1NC(=O)[C@H](Cc2c[nH]c3ccccc23)NC(=O)[C@H](CC(=O)O)NC(=O)CNC(=O)[C@H](CCC(=O)O)NC(=O)[C@@H](NC(=O)[C@H](Cc2ccc(O)cc2)NC(=O)[C@@H](NC(=O)CCC(=O)NCCCOCCOCCOCCCNC(=O)CN2CCN(CC(=O)O)CCN(CC(=O)O)CCN(CC(=O)O)CC2)C(C)C)CSCc2cccc(c2)CSC[C@@H](C(N)=O)NC(=O)[C@H](C)NC(=O)[C@H](Cc2c[nH]c3ccccc23)NC(=O)[C@H]([C@@H](C)O)NC1=O [3BP-3272] ({X3-Suc}-VYCEGDWLTWAC-NH2; linker 3-12 via mXylylene) | < 10 | C (t1/2 between 2.1 and 5.0 minutes) | < 10 |  | 
CC(C)C[C@@H]1NC(=O)[C@H](Cc2c[nH]c3ccccc23)NC(=O)[C@H](CC(=O)O)NC(=O)CNC(=O)[C@H](CCC(=O)O)NC(=O)[C@@H](NC(=O)[C@H](Cc2ccc(O)cc2)NC(=O)[C@@H](NC(=O)CCC(=O)NCCCOCCOCCOCCCNC(=O)CN2CCN(CC(=O)O)CCN(CC(=O)O)CCN(CC(=O)O)CC2)C(C)C)CSCc2cccc(c2)CSC[C@@H](C(N)=O)NC(=O)[C@H](CCC(N)=O)NC(=O)[C@H](Cc2c[nH]c3ccccc23)NC(=O)[C@H]([C@@H](C)O)NC1=O [3BP-3328] ({X3-Suc}-VYCEGDWLTWQC-NH2; linker 3-12 via mXylylene) |  |  | < 10 |  | 

Further lines, results first:

IC50 [1, 3] [nM] | t1/2 category (activity) [2] | Kd [2] [nM] | IC50 [1, 4] [nM] | IC50 [1, 5] [nM] | SMILES
 |  | < 10 | < 10 |  | CC(C)C[C@@H]1NC(=O)[C@H](Cc2c[nH]c3ccccc23)NC(=O)[C@H](CC(=O)O)NC(=O)[C@@H](CCCN(C)C)NC(=O)[C@H](CCC(=O)O)NC(=O)[C@@H](NC(=O)[C@H](Cc2ccc(O)cc2)NC(=O)[C@@H](NC(=O)CN2CCC(NC(=O)CN3CCN(CC(=O)O)CCN(CC(=O)O)CCN(CC(=O)O)CC3)CC2)C(C)C)CSCc2cccc(c2)CSC[C@@H](C(N)=O)NC(=O)[C@H](CO)NC(=O)[C@H](Cc2c[nH]c3ccccc23)NC(=O)[C@H]([C@@H](C)O)NC1=O [3BP-4097] ({DOTA}-[X2]VYCE[dOrn(Me2)]DWLTWSC-NH2; linker 4-13 via mXylylene)
 | D (t1/2≤2.0 minutes) | 10 to 79.4 |  | 10 to 79.4 | CC(C)C[C@@H]1NC(=O)[C@H](Cc2ccc(NC(=O)CCC(=O)O)cc2)NC(=O)[C@H](CC(=O)O)NC(=O)[C@H]2CCCN2C(=O)[C@H](CCC(=O)O)NC(=O)[C@@H](NC(=O)[C@H](Cc2ccc(O)cc2)NC(=O)[C@@H](NC(=O)CN2CCC(NC(=O)CN3CCN(CC(=O)O)CCN(CC(=O)O)CCN(CC(=O)O)CC3)CC2)C(C)C)CSCc2cccc(c2)CSC[C@@H](C(N)=O)NC(=O)[C@H](CO)NC(=O)[C@H](Cc2c[nH]c3ccccc23)NC(=O)[C@H]([C@@H](C)O)NC1=O [3BP-4356] ({DOTA}-[X2]VYCE[dP]D[Phe(4-NH2)](Suc)LTWSC-NH2; linker 4-13 via mXylylene)
 | C (t1/2 between 2.1 and 5.0 minutes) | 10 to 79.4 | 10 to 79.4 |  | CC(C)C[C@@H]1NC(=O)[C@H](Cc2cccc(NC(=O)c3cc(S(N)(=O)=O)c[nH]3)c2)NC(=O)[C@H](CC(=O)O)NC(=O)[C@H]2CCCN2C(=O)[C@H](CCC(=O)O)NC(=O)[C@@H](NC(=O)[C@H](CCC(N)=O)NC(=O)CN2CCN(C(=O)CN3CCN(CC(=O)O)CCN(CC(=O)O)CCN(CC(=O)O)CC3)CC2)CSCc2cccc(c2)CSC[C@@H](C(N)=O)NC(=O)[C@H](CO)NC(=O)[C@H](Cc2c[nH]c3ccccc23)NC(=O)[C@H]([C@@H](C)O)NC1=O [3BP-4789]
 | A (t1/2>15.0 minutes) | < 10 |  | < 10 | CC(C)C[C@@H]1NC(=O)[C@H](Cc2cccc(NC(=O)c3cccc(S(N)(=O)=O)c3)c2)NC(=O)[C@H](CC(=O)O)NC(=O)[C@H]2CCCN2C(=O)[C@H](CCC(=O)O)NC(=O)[C@@H](NC(=O)[C@H](Cc2ccc(O)cc2)NC(=O)[C@@H](NC(=O)CN2CCC(NC(=O)CN3CCN(CC(=O)O)CCN(CC(=O)O)CCN(CC(=O)O)CC3)CC2)C(C)C)CSCc2cccc(c2)CSC[C@@H](C(N)=O)NC(=O)[C@H](CO)NC(=O)[C@H](Cc2c[nH]c3ccccc23)NC(=O)[C@H]([C@@H](C)O)NC1=O [3BP-4409] ({DOTA}-[X2]VYCE[dP]D[X23]LTWSC-NH2; linker 4-13 via mXylylene)
 | B (t1/2 between 5.1 and 15.0 minutes) | < 10 |  |  | CC(C)C[C@@H]1NC(=O)[C@H](Cc2ccc(Cl)c(Cl)c2)NC(=O)[C@H](CC(=O)O)NC(=O)[C@H]2CCCN2C(=O)[C@H](CCC(=O)O)NC(=O)[C@@H]2CSCc3cccc(c3)CSC[C@@H](C(N)=O)NC(=O)[C@H](CNC(=O)C[C@H](NC(=O)[C@@H](NC(=O)CN3CCC(NC(=O)CN4CCN(CC(=O)O)CCN(CC(=O)O)CCN(CC(=O)O)CC4)CC3)C(C)C)C(=O)N2)NC(=O)[C@H](Cc2c[nH]c3ccccc23)NC(=O)[C@H]([C@@H](C)O)NC1=O [3BP-4439] ({DOTA}-[X2]VDCE[dP]D[Phe(3,4-Cl2)]LTW[Dap]C-NH2; lactam 3-12; linker 4-13 via mXylylene)
